From patent US9023789B2, “Amylin analogs and pharmaceutical compositions thereof” (Novo Nordisk A/S, priority 2012, dated 2015)
Where two headings read alike, the source gives them in different places. Numbered stars: 1 amine (or outer) side, 2 acyl side, 3 side chain; on linkers, the order of the positions; unused ones are H or OH. Bridge positions count the residues as written; N and C are the ends. Side chains are listed from the residue outwards. Peptide text beside a SMILES is read from it. * marks the point of attachment. C20 diacid = O=C(O)CCCCCCCCCCCCCCCCCCC(=O)*; γGlu = O=C(O)[C@H](CCC(=O)[*:2])N[*:1]; AEEA = NCCOCCOCC(=O)O

What was measured:
[1] = ASSAY (IV) determination of solubility; format: physicochemical
Method in brief: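 Samples of polypeptide, prepared from a water stock at […] and diluted 1:1 into 100 mM buffers spanning pH 3.0 to 8.0, stood 18 hours at room temperature. Polypeptide concentration was then determined by UPLC following centrifugation.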

rat calcitonin receptor = molecular target: T1, rat calcitonin receptor (Rattus norvegicus, UniProt P32214); assay: ASSAY (VIII) binding to the rat calcitonin receptor; conditions: Table 7, read-out: rCTR bind IC50
T1 construct: expressed in transfected cells; host or cells: BHK tk'ts 13 (transient, FuGENE 6), membranes
T1 sequence (P32214 25-479 isoform P32214-2 limits assumed): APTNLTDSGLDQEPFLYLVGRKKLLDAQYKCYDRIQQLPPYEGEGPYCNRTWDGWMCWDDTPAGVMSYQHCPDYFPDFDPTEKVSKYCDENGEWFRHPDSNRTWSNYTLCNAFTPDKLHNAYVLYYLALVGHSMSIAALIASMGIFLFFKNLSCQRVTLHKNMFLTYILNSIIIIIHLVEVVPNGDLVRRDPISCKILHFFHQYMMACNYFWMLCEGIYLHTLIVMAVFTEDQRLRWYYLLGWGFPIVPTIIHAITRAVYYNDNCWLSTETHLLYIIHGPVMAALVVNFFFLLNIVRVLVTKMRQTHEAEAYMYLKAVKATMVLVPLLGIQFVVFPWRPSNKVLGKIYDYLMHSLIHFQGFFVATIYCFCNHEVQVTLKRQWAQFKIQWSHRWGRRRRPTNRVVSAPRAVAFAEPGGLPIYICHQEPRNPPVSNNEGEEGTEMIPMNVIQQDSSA
Method in brief: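 Cell membranes for binding came from BHK tk′ts 13 cells harvested approximately 48 hours after transient transfection with the rat receptor.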

[2] = molecular target: T2, human amylin receptor (membranes from Amylin 3(a)/CRE-luc cells) (Homo sapiens, UniProt O60896+P30988); assay: ASSAY (V) binding to the human amylin receptor (SPA, 125I-rat amylin); conditions: for IC50: Table 4, read-out: hAmylin-R bind IC50;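 as to all read-outs here: competition binding of cell membranes (35 ng/µL) mixed with SPA beads in 384-well plates at 40 µL total volume, read by scintillation counting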
T2 construct: expressed in transfected cells
T2 sequence (P30988 25-474): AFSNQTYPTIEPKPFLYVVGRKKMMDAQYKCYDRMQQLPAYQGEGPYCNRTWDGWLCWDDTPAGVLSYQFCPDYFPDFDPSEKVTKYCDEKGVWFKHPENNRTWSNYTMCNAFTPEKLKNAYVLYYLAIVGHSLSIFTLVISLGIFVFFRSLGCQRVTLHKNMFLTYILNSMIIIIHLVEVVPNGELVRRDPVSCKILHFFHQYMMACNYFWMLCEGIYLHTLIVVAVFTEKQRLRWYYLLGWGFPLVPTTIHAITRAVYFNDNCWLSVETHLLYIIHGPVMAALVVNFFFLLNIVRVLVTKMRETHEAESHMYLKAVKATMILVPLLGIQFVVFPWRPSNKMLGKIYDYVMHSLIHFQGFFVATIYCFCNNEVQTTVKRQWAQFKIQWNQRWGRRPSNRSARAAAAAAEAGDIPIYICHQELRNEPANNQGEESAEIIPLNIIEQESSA
T2 sequence (O60896 24-148 partner): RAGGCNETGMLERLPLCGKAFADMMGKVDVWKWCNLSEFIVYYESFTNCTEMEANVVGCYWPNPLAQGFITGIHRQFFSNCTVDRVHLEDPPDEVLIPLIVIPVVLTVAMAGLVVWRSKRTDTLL

[3] = molecular target: T3, human calcitonin receptor (Homo sapiens, UniProt P30988); assay: ASSAY (VII) binding to the human calcitonin receptor (SPA, 125I-Calcitonin); conditions: read-out: hCTR bind IC50;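 also: cell membranes (35 ng/µL) combined with SPA beads in 40 µL of pH 7.4 Hepes buffer, 384-well format, signal counted on a TopCounter instrument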
T3 construct: expressed in transfected cells
T3 sequence (P30988 25-474): T2 sequence (P30988 25-474)

[4] = molecular target: T4, human calcitonin (a) receptor in BHK570 cells (Homo sapiens, UniProt P30988); assay: ASSAY (II)a functional assay, human calcitonin receptor (CRE luciferase); format: cell-based; conditions: read-out: hCTR funct. EC50
T4 construct: expressed in transfected cells
T4 sequence (P30988 25-474): T2 sequence (P30988 25-474)
Method in brief: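 Read-out: CRE-driven luciferase luminescence, single photon counting, after 30 min at room temperature with LucLite. BHK cells expressed calcitonin receptor alone or with RAMP-3 (amylin 3(a)). Cells were stimulated 3 h at 37° C in DMEM, 10% FBS, 10 mM Hepes, pH 7.4.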

[5] = molecular target: T5, rat amylin receptor (rat calcitonin receptor + rat RAMP 3) (Rattus norvegicus, UniProt P32214+Q9JJ73); assay: ASSAY (VI) binding to the rat amylin receptor; conditions: for IC50: binding to rat amylin receptor, read-out: rAmylin-R bind IC50
T5 construct: expressed in transfected cells; host or cells: BHK tk'ts 13 (transient, FuGENE 6), membranes
T5 sequence (P32214 25-479 isoform P32214-2 limits assumed): T1 sequence (P32214 25-479 isoform P32214-2 limits assumed)
T5 sequence (Q9JJ73 23-147 partner): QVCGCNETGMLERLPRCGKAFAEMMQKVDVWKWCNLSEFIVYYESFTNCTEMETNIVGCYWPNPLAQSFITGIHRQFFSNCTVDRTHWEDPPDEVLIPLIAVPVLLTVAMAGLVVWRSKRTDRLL
Method in brief: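 The cell-membrane assay assessed binding at the rat amylin receptor. BHK tk′ts 13 cells were transfected transiently with rat calcitonin receptor, with FuGENE® 6 (Roche) as the transfection reagent, used per the manufacturer's recommendations. Approximately 48 hours after transfection the cells were harvested, and membranes were prepared for measuring binding.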

[6] = bistrispropane buffer, pH 6.5, read-out: Solubility pH 6.5 Concentration
[7] = bistrispropane buffer, pH 7.5, read-out: Solubility pH 7.5 Concentration
[8] = bistrispropane buffer, pH 6.0, read-out: Solubility pH 6.0 Concentration
[9] = bistrispropane buffer, pH 7.0, read-out: Solubility pH 7.0 Concentration
[10] = bistrispropane buffer, pH 8.0, read-out: Solubility pH 8.0 Concentration
[11] = glycylglycine buffer, pH 3.0, read-out: Solubility pH 3.0 Concentration
[12] = glycylglycine buffer, pH 4.0, read-out: Solubility pH 4.0 Concentration
[13] = glycylglycine buffer, pH 5.0, read-out: Solubility pH 5.0 Concentration
[14] = Table 5, selectivity, hCTR bind IC50 / hAmylin-R bind IC50
[15] = Table 5a, selectivity, hCTR bind IC50 / hAmylin-R bind IC50
[16] = Table 5b, selectivity, hCTR bind IC50 / hAmylin-R bind IC50
[17] = Table 7, human binding selectivity, included for comparison
[18] = Table 7a (preferred compounds), human binding selectivity, included for comparison
[19] = ratio of human calcitonin receptor binding IC50 to human amylin receptor binding IC50
[20] = Table 7, rat binding selectivity, rCTR IC50 / rAmylin-R IC50
[21] = Table 7a (preferred compounds), rat binding selectivity, rCTR IC50 / rAmylin-R IC50
[22] = ratio of rCTR bind IC50 to rAmylin-R bind IC50
[23] = Table 5c, selectivity, hCTR bind IC50 / hAmylin-R bind IC50

Row | solubility at 18 h [1, 6] [µM] | solubility at 18 h [1, 7] [µM] | solubility at 18 h [1, 8] [µM] | solubility at 18 h [1, 9] [µM] | solubility at 18 h [1, 10] [µM] | solubility at 18 h [1, 11] [µM] | solubility at 18 h [1, 12] [µM] | solubility at 18 h [1, 13] [µM] | IC50 (rat calcitonin receptor) [nM] | IC50 [2] [nM] | Ratio hCT/hAmylin binding [2, 14] | Ratio hCT/hAmylin binding [2, 15] | Ratio hCT/hAmylin binding [2, 16] | Ratio hCT/hAmylin binding [2, 17] | Ratio hCT/hAmylin binding [2, 18] | Ratio hCT/hAmylin binding [2, 19] | IC50 [3] [nM] | EC50 [4] [nM] | IC50 ([5]; Table 7) [nM] | Ratio rCT/rAmylin binding [5, 20] | Compound | further results
1 | ≥ 200 | ≥ 200 | ≥ 200 | ≥ 200 | ≥ 200 | ≥ 200 | ≥ 200 | ≥ 200 | 16.1 | 0.121 | 17.6 | 17.6 | 17.6 | 17.6 | 17.6 | 17.6 | 2.14 | 2.36 | 0.182 | 88.5 | CC[C@H](C)[C@H](NC(=O)[C@H](C)NC(=O)CNC(=O)[C@H](Cc1ccccc1)NC(=O)[C@H](CC(N)=O)NC(=O)[C@@H]1CCCN1C(=O)[C@H](CO)NC(=O)[C@H](CO)NC(=O)[C@H](Cc1c[nH]cn1)NC(=O)[C@H](CCCNC(=N)N)NC(=O)[C@H](CC(C)C)NC(=O)[C@H](Cc1ccccc1)NC(=O)[C@H](CCC(=O)O)NC(=O)[C@H](C)NC(=O)[C@H](CC(C)C)NC(=O)[C@H](CCCNC(=N)N)NC(=O)[C@H](CCC(N)=O)NC(=O)[C@@H](NC(=O)[C@H](C)NC(=O)[C@@H]1CSSC[C@H](NC(=O)[C@@H](N)CCCCNC(=O)CC[C@H](NC(=O)CC[C@H](NC(=O)CCCCCCCCCCCCCCCCCCC(=O)O)C(=O)O)C(=O)O)C(=O)N[C@@H](CC(N)=O)C(=O)N[C@@H]([C@@H](C)O)C(=O)N[C@@H](C)C(=O)N[C@@H]([C@@H](C)O)C(=O)N1)[C@@H](C)O)C(=O)N1CCC[C@H]1C(=O)N[C@@H](CO)C(=O)N[C@@H](CO)C(=O)N[C@H](C(=O)N[C@@H](CC(N)=O)C(=O)N[C@H](C(=O)NCC(=O)N1CCC[C@H]1C(=O)N[C@@H](CCC(=O)O)C(=O)N[C@H](C(=O)N[C@@H](Cc1ccc(O)cc1)C(N)=O)[C@@H](C)O)C(C)C)[C@@H](C)O [Example 106] (H-K([γGlu-γGlu-C20 diacid])CNTATCATQRLAEFLRHSSPNFGAIPSSTNVGPETY-NH2; disulfide 2-7; N-terminus assumed) | Ratio rCT/rAmylin binding [5, 21]: 88.5; Ratio rCT/rAmylin binding [5, 22]: 88.5
2 | ≥ 200 | ≥ 200 | ≥ 200 | ≥ 200 | ≥ 200 | ≥ 200 | ≥ 200 | ≥ 200 | 128 | 0.444 | 126.1 | 126.1 | 126.1 | 126.1 | 126.1 | 126.1 | 56 | 22.9 | 1.97 | 64.7 | CC[C@H](C)[C@H](NC(=O)[C@H](C)NC(=O)CNC(=O)[C@H](Cc1ccccc1)NC(=O)[C@H](CC(N)=O)NC(=O)[C@@H]1CCCN1C(=O)[C@H](CO)NC(=O)[C@H](CO)NC(=O)[C@H](Cc1c[nH]cn1)NC(=O)[C@H](CCCNC(=N)N)NC(=O)[C@H](CC(C)C)NC(=O)[C@H](Cc1ccccc1)NC(=O)[C@H](CCCNC(=N)N)NC(=O)[C@H](C)NC(=O)[C@H](CC(C)C)NC(=O)[C@H](CCCNC(=N)N)NC(=O)[C@H](CCC(N)=O)NC(=O)[C@@H](NC(=O)[C@H](C)NC(=O)[C@@H]1CSSC[C@H](NC(=O)[C@@H](N)CCCCNC(=O)COCCOCCNC(=O)CC[C@H](NC(=O)CCCCCCCCCCCCCCCCCCC(=O)O)C(=O)O)C(=O)N[C@@H](CC(N)=O)C(=O)N[C@@H]([C@@H](C)O)C(=O)N[C@@H](C)C(=O)N[C@@H]([C@@H](C)O)C(=O)N1)[C@@H](C)O)C(=O)N1CCC[C@H]1C(=O)N[C@@H](CO)C(=O)N[C@@H](CO)C(=O)N[C@H](C(=O)N1CCC[C@H]1C(=O)N[C@H](C(=O)NCC(=O)N[C@@H](CO)C(=O)N[C@@H](CC(N)=O)C(=O)N[C@H](C(=O)N[C@@H](Cc1ccc(O)cc1)C(N)=O)[C@@H](C)O)C(C)C)[C@@H](C)O [Example 64] (H-K([AEEA-γGlu-C20 diacid])CNTATCATQRLARFLRHSSPNFGAIPSSTPVGSNTY-NH2; disulfide 2-7; N-terminus assumed) | Ratio hCT/hAmylin binding [2, 23]: 126.1; Ratio rCT/rAmylin binding [5, 21]: 64.7; Ratio rCT/rAmylin binding [5, 22]: 64.7
3 | ≥ 200 | ≥ 200 | ≥ 200 | ≥ 200 | ≥ 200 | ≥ 200 | ≥ 200 | ≥ 200 | 389 | 0.967 | 63.4 | 63.4 | 63.4 | 63.4 | 63.4 | 63.4 | 61.3 | 21.5 | 5.45 | 71.3 | CC[C@H](C)[C@H](NC(=O)[C@H](C)NC(=O)CNC(=O)[C@H](Cc1ccccc1)NC(=O)[C@H](CC(N)=O)NC(=O)[C@@H]1CCCN1C(=O)[C@H](CO)NC(=O)[C@H](CO)NC(=O)[C@H](Cc1c[nH]cn1)NC(=O)[C@H](CCCNC(=N)N)NC(=O)[C@H](CC(C)C)NC(=O)[C@H](Cc1ccccc1)NC(=O)[C@H](CC(N)=O)NC(=O)[C@H](C)NC(=O)[C@H](CC(C)C)NC(=O)[C@H](CCCNC(=N)N)NC(=O)[C@H](CCC(N)=O)NC(=O)[C@@H](NC(=O)[C@H](C)NC(=O)[C@@H]1CSSC[C@H](NC(=O)[C@@H](N)CCCCNC(=O)COCCOCCNC(=O)COCCOCCNC(=O)CC[C@H](NC(=O)CCCCCCCCCCCCCCCCCCC(=O)O)C(=O)O)C(=O)N[C@@H](CC(N)=O)C(=O)N[C@@H]([C@@H](C)O)C(=O)N[C@@H](C)C(=O)N[C@@H]([C@@H](C)O)C(=O)N1)[C@@H](C)O)C(=O)N1CCC[C@H]1C(=O)N[C@@H](CO)C(=O)N[C@@H](CO)C(=O)N[C@H](C(=O)N[C@@H](CC(N)=O)C(=O)N[C@H](C(=O)NCC(=O)N[C@@H](CCCNC(=N)N)C(=O)N[C@@H](CC(N)=O)C(=O)N[C@H](C(=O)N[C@@H](Cc1ccc(O)cc1)C(N)=O)[C@@H](C)O)C(C)C)[C@@H](C)O [Example 95] (H-K([AEEA-AEEA-γGlu-C20 diacid])CNTATCATQRLANFLRHSSPNFGAIPSSTNVGRNTY-NH2; disulfide 2-7 (inferred); N-terminus assumed) | Ratio hCT/hAmylin binding [2, 23]: 63.4; Ratio rCT/rAmylin binding [5, 21]: 71.3; Ratio rCT/rAmylin binding [5, 22]: 71.3
